Source: US9210928B2, “Plant development control composition” (Syngenta Crop Protection, LLC, priority 2008, dated 2015)
“Also recorded” adds a separate entry of the source.

Key:
[1] = test system: abscisic acid production in planta; conditions: 50-100 μM concentration; cited from earlier work
LeNCED1 = molecular target: T1, LeNCED1 (Solanum lycopersicum, UniProt O24023); assay: In vitro NCED enzyme assay (recombinant LeNCED1 cell-free extract, HPLC, 9′-cis-neoxanthin substrate); type: biochemical, tomato
T1 construct: made in house; host or cells: E. coli Rosetta (DE3); crude cell-free extract
T1 sequence (O24023 17-605): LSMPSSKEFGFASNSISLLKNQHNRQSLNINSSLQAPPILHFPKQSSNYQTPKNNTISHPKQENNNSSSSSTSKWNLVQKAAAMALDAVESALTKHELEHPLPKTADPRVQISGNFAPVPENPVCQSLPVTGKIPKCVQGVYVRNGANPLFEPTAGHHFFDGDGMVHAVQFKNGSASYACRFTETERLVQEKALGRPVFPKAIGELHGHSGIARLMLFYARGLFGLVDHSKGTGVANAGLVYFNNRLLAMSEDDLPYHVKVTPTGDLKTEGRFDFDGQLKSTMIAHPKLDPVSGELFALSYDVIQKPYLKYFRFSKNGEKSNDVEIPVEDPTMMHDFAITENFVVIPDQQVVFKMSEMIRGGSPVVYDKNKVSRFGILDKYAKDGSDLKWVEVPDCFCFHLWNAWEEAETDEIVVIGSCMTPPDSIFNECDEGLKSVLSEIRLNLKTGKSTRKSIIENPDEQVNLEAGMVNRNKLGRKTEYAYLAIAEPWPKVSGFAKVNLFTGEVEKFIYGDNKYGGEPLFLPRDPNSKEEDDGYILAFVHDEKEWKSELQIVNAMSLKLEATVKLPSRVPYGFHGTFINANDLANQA
Description: In vitro NCED enzyme assay—We over-expressed LeNCED1 in E. coli, as an N-terminal His6-fusion protein (supplemental methods). Cell-free extract containing recombinant LeNCED1 was prepared in 100 mM bis-tris buffer (pH 6.7). 15 μl extract was pre-activated by addition of iron(II) sulphate (20 mM, 1 μl) and ascorbic acid (20 mM, 1 μl) on ice for 2 min, prior to use. This aliquot of enzyme was then added to an assay (150 μl total volume) containing 100 mM bis-tris buffer (pH 6.7), 0.05% v/v Triton X-100, 1.0 mg/ml catalase, and 3 μg 9′-cis-neoxanthin. The 9′-cis-neoxanthin substrate was prepared as described in supplemental methods. The enzyme assay was incubated for 15 min in the dark at 20° C. Water (700 μl) was then added, and the products extracted with ethyl acetate (3×1 ml). The organic solvent was removed at reduced pressure, the residue was dissolved in methanol (200 μl), and then 100 μl was injected onto a Phenomenex C18 reverse phase HPLC column, and a gradient of 5-10% methanol in acetonitrile/0.05% triethylamine was applied at 0.5 ml/min over 20 min, detecting at 440 nm. NCED inhibition assays contained 1-100 μM inhibitor; inhibition was calculated from the product formation after 15 min, compared to a control assay with no inhibitor present.
(§1) For the production of cell-free extracts of LeCCD1a and LeNCED1, cultures were grown to an OD of 0.6 at 37° C., then isopropyl β-D-1-thiogalactopyranoside (IPTG) was added to 0.2 mM and the cultures grown overnight at 20° C. The cells (200 ml cultures) were harvested by centrifugation (5000 rpm, 10 min) and the pellet re-suspended in 4 ml PBS, 0.1% Triton-X 100. Lysozyme was added to a final concentration of 25 μg ml^−1 and the solution incubated at room temperature for 15 min before sonication (3×30 s at 18Ω) on ice. The lysate was then centrifuged (13000 rpm, 15 min, 4° C.) and the supernatant used for the assay.
(§2) Specificity of inhibition in vitro for tomato genes LeNCED1 and LeCCD1a—In order to screen the inhibitors against enzymes which cleave carotenoids at the 9,10 position, we used the recombinant tomato LeCCD1a protein (44), because this type of enzyme can be studied using an in vitro colourimetric assay with β-apo-8′-carotenal as substrate (37). To establish the specificity of the inhibitors, they were also tested against the tomato LeNCED1 recombinant protein which cleaves 9-cis carotenoids at the 11,12 position (45). For this enzyme, the cleavage reaction was monitored by C18 reverse phase HPLC, using 9′-cis-neoxanthin as substrate.

LeCCD1a = LeCCD1a (Solanum lycopersicum, UniProt Q6E4P5); assay: In vitro LeCCD1a enzyme assay (recombinant cell-free extract, colourimetric, apo-8′-carotenal substrate); type: biochemical, tomato (Solanum lycopersicum); conditions: for IC50: E. coli cell extract with recombinant CCD, read-out: LeCCD1a (9,10/9′,10′) IC50; for inhibition at 100 µM: read-out: LeCCD1a (9,10/9′,10′) Inhibition @ 100 μM (%)
Chain of LeCCD1a (Q6E4P5 1-545): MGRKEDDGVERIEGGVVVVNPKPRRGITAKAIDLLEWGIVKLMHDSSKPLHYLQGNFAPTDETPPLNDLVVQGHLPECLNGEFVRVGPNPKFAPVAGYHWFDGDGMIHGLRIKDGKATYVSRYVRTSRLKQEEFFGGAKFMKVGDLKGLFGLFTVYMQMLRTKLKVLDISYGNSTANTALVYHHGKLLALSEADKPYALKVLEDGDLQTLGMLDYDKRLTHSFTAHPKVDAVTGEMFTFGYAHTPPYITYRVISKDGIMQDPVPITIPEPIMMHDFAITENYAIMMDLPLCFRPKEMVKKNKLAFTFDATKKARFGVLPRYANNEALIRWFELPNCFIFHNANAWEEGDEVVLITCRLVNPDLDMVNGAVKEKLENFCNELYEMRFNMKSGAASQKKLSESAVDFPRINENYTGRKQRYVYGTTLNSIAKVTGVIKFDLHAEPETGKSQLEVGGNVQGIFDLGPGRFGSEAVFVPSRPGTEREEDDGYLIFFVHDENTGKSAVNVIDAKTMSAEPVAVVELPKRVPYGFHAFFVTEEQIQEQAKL
Description: In vitro LeCCD1a enzyme assay—We over-expressed LeCCD1a in E. coli, as a GST-fusion protein (supplemental methods). The in vitro assay of LeCCD1a was based on reported methods (37), and was carried out in a 200 μl total volume in a 96-well microtitre plate, with the signal detected at 485 nm. To prepare substrate solution for each assay, 5 μl of 4% (w/v in ethanol) apo-8′-carotenal (Sigma) was mixed with 25 μl of 4% (w/v in ethanol) β-octylglucoside (Sigma), the ethanol was then evaporated under nitrogen, and the residue dissolved in 150 μl PBS buffer containing 10 mM sodium ascorbate by incubation at 20° C. for 30 min. 50 μl of cell-free extract containing recombinant LeCCD1a was added, and the reactions monitored over 30 min at 20° C.
as §1, §2

recombinant NCED = conditions: read-out: Ki, reversible competitive inhibitor of recombinant NCED; cited from earlier work
SP12 tomato seeds = assay: Germination assay, SP12 tomato seed over-expressing LeNCED1; type: in vivo, Solanum lycopersicum; conditions: for stimulation of germination of SP12 seeds: compounds D1 to D7 tested, 1% DMSO
Source text: (§3) Seeds used were “wild-type” tomato (Solanum lycopersicum cv. Ailsa craig near-isogenic line containing the Tm2^a tobacco mosaic virus resistance gene). In addition, we used transgenic tomato seed (Solanum lycopersicum cv. Ailsa craig) transformed with a construct designed to over-express the gene LeNCED1, encoding 9-cis-epoxycarotenoid dioxygenase. These transgenic seeds are known as D9 [Thompson, A. J., et al., Ectopic expression of a tomato 9-cis-epoxycarotenoid dioxygenase gene causes over-production of abscisic acid. Plant Journal, 2000. 23(3): p. […]], but were later renamed as SP12 [Thompson, A. J., et al., Regulation and manipulation of ABA biosynthesis in roots. Plant Cell and Environment, 2007. 30: p. […] Plant Journal, 2000. 23(3): p. 363-74.5].
(§4) Each assay consisted of a 10 cm vented Petri dish containing an 8.5 cm diameter circle of Whatman Grade 1 filter paper (Whatman International Ltd, Maidstone, England) soaked in 1 ml of test solution. Seeds were surface sterilized with 30% household bleach for 30 mins, rinsed in distilled water, and then 20 seeds were placed on the filter paper in each Petri dish. The Petri dishes were incubated at high relative humidity (>95%) at 25° C. in the dark. Seed germination, defined as visible emergence of the radicle, was scored daily. Replicate plates were used for each chemical treatment.
Hydroxamic acids were dissolved in dimethylsulphoxide (DMSO), and aqueous test solutions were prepared such that the final concentration of DMSO was 1% v/v. Control solution consisted of 1% v/v DMSO in water. Norflurazon was prepared as a stock solution at 20 mg ml^−1 in ethanol, and then diluted with water to a final concentration of 5 mg l^−1, with ethanol present at 0.025% v/v.
Transgenic SP12 tomato seeds we created by the inventors; these seeds have high levels of ABA and increased dormancy [Thompson, A. J., et al., Ectopic expression of a tomato 9-cis-epoxycarotenoid dioxygenase gene causes over-production of abscisic acid. Plant Journal, 2000. 23(3): p. 363-74 and Thompson, A. J., et al., Regulation and manipulation of ABA biosynthesis in roots. Plant Cell and Environment, 2007. 30: p. 67-78].

[2] = test system: wild-type tomato seeds (cv. Ailsa Craig); assay: Germination assay, wild-type tomato seed; type: in vivo, Solanum lycopersicum; conditions: dose-dependent; FIG. 9
Source text: as §3
as §4, with “treatment. […]” for “treatment.”

whole Arabidopsis plants = assay: Shoot branching in whole Arabidopsis plants grown in agar; type: in vivo; conditions: for unintended effects on whole Arabidopsis plants: applied to whole plants; for branching phenotype of whole plants (in words): plants grown under sterile conditions in agar
Description: Branching phenotypes of Arabidopsis plants grown in agar media for 45 days supplemented with inhibitor D6. Images are shown: (a) Col-0 (WT) without inhibitor; (b) max3-9 mutant without inhibitor; (c) Col-0 with 100 μM D6. The numbers (d) of rosette branches were quantified. Error bars represent standard error of the mean, n=6 to 12.
Stimulation of shoot branching in whole Arabidopsis plants—Inhibitors were also applied to Arabidopsis whole plants grown under sterile conditions in agar. […] Inhibitor treated plants were intermediate (mean of approximately 2 branches) and so partially mimicked max3-9 (FIG. 6d).

[3] = test system: excised Arabidopsis nodes; assay: Axillary bud outgrowth assay in Arabidopsis stem sections; type: in vivo; conditions: 100 μM inhibitor, 1 μM NAA; Col-0
Description: Axillary bud outgrowth assay in Arabidopsis stein sections—The assays were performed essentially as described (40) with the following modifications. Small Petri dishes (50 mm diameter, 20 mm depth) were filled with 10 ml of ATS (39) supplemented with 1% agar and 1% sucrose. Inhibitors and α-naphthalene acetic acid (NAA) were added to the agar before pouring to give 100 μM and 1 μM, respectively. Thus, when the central strip was cut out of the agar, both the apical and basal media contained both NAA and inhibitor. Any nodes in which the apical end had curled out of the media or which bud length was less than 2 mm at the end of the experiment were discounted. Measurement of the shoot length was performed every 24 hours. For each assay a logistic curve was fitted using Genstat (10th edition, VSN international) with the fitcurve directive and the lag phase was calculated by extrapolating the linear part of the curve and the initial plateau (see supplementary methods). The x value of where these two lines intersected represented the lag phase.
A logistic curve, y=A+C/(1+e^−B(t−m)), was fitted to the data for each shoot using GenStat (10th edition). The lag phase was then calculated using the equation m−(2/B) which effectively gave the t value (time) of the intercept of the two extrapolated lines from the linear part of the curve and the initial plateau.
Stimulation of shoot branching in Arabidopsis stem sections by application of inhibitor—Auxin inhibits the outgrowth of axillary buds in wild-type Arabidopsis plants. In the AtCCD7 and AtCCD8 null mutants (max3 and max4, respectively) the response to auxin is reduced, presumably due to a block in formation of an apocarotenoid hormone (recently shown (17,18) to be strigolactone or a related compound) that suppresses branching (19), and axillary buds extend earlier, leading to formation of side branches. An in vitro assay was previously developed in which the growth of axillary buds from isolated sections of Arabidopsis stem was used to assess max mutants (40). […]

AtCCD1 = AtCCD1 (Arabidopsis thaliana, UniProt O65572); conditions: 100 μM; cited from earlier work
Chain of AtCCD1 (O65572 whole entry): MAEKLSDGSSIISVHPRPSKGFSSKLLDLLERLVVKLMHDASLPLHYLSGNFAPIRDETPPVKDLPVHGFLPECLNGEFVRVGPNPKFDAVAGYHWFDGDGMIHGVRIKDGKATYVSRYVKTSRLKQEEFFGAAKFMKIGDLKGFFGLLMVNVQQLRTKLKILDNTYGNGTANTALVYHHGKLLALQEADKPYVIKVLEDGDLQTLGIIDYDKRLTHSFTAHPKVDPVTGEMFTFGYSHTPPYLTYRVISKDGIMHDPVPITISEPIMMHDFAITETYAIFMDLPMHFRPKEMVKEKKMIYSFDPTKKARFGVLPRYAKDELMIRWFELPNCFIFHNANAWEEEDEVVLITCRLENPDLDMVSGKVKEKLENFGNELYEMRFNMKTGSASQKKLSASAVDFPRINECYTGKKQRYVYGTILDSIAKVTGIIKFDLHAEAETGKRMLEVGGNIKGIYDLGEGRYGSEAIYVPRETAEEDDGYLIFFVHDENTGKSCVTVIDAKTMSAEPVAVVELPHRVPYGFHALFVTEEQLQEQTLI

AtNCED3 = AtNCED3 (Arabidopsis thaliana, UniProt Q9LRR7); conditions: 100 μM; cited from earlier work
Chain of AtNCED3 (Q9LRR7 41-599): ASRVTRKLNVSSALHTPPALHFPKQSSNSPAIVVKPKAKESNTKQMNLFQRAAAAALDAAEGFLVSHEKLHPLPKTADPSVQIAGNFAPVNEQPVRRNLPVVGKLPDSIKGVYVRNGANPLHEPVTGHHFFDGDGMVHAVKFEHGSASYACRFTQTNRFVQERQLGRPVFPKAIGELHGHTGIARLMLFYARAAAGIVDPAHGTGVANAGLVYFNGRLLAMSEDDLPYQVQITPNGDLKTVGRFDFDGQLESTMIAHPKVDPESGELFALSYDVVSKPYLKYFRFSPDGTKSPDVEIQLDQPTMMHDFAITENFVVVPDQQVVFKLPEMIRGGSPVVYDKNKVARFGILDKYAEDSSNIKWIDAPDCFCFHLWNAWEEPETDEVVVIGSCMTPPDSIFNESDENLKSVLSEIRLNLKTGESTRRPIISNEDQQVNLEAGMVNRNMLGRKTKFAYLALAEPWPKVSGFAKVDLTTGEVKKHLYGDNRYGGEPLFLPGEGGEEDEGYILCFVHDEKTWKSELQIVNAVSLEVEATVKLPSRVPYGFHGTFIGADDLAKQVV

Row | Compound | IC50 (LeCCD1a) | Ki (recombinant NCED) | stimulation of germination of SP12 seeds (SP12 tomato seeds) | inhibition of LeNCED1 in vitro (in words) (LeNCED1) | inhibition at 100 µM (LeCCD1a) | unintended effects on whole Arabidopsis plants (whole Arabidopsis plants) | branching phenotype of whole plants (in words) (whole Arabidopsis plants) | further results
1 | COC(=O)CN(C/C=C/c1ccc(OC)c(OC)c1)Cc1ccc(F)cc1 [Abamine, reference compound] | 210 µM | 39 µM | – | – | – | – | – | abscisic acid production in planta [1]: inhibited abscisic acid production in planta; LeNCED1 (11,12) Inhibition @ 100 μM (%) (LeNCED1; 100 μM inhibitor, E. coli cell extract with recombinant CCD): 20%
2 | O=C(Cc1ccc2c(c1)OCO2)N(O)Cc1ccc(F)cc1 [Compound D7, N-(4-fluorobenzyl)-3,4-methylenoxyphenylacetyl hydroxamic acid] | – | – | most active compounds in stimulating germination | greatest inhibition of NCED in vitro | > 95% | – | – | –
3 | COc1ccc(CC(=O)N(O)Cc2ccc(F)cc2)cc1 [Compound D4, N-(4-fluorobenzyl)-4-methoxyphenylacetyl hydroxamic acid] | – | – | most active compounds in stimulating germination; also recorded: promoted germination of SP12 seeds | greatest inhibition of NCED in vitro | > 95% | without negative unintended effects on whole plants | bushy appearance | plant development following application to seeds (SP12 tomato seeds; 2 mM): Some delay in development; plant development following application to wild-type or SP12 seeds (SP12 tomato seeds; concentrations <1 mM): Normal plant development; germination of wild-type tomato seeds [2]: germination of these seeds was also promoted
4 | O=C(Cc1ccc(O)cc1)N(O)Cc1ccccc1 [Compound D1, N-benzyl-4-hydroxyphenylacetyl hydroxamic acid] | 0.8 to 0.9 µM | – | – | – | > 95% | grew normally | without an increase in branching | advancement of the timing of bud outgrowth in wild-type [3]: one; inhibition of LeCCD1 in vitro (in words) (LeCCD1a): good inhibitors of the 9,10 enzymes in vitro
5 | abamineSG | – | 18.5 µM | – | – | – | – | – | inhibition of AtCCD1 (AtCCD1): ≤ 20%; inhibition of AtNCED3 (AtNCED3): 78%
